Values joined by “and” are separate entries in the source; they are usually repeats but may differ in a detail not shown here. Equal entries are not always repeated. “Also recorded” adds a separate entry of the source. Where two headings read alike, the source gives them in different places.
Key:
IFN-γ = assay: Concanavalin A-induced IFN-γ in Lewis rats; type: in vivo; conditions: oral, 30 min prior to i.v. Con A
Procedure: The test compound is formulated in an inert vehicle (for example but not limited to 0.5% hydroxypropylmethyl cellulose (Sigma, cat #H3785)/0.02% Tween 80 (Sigma, cat #4780) in water) at the desired concentration to achieve doses in the range of 0.01-100 mg/kg. Six-week-old male Lewis rats (125 g-150 g) (Charles River Laboratories) are dosed with the compound orally, at time zero (0 min). After about 30 min the rats are injected intravenously (i.v.) with 10 mg/kg Concanavalin A (Con A, AmershamBioscience, cat #17-0450-01) dissolved in PBS (Invitrogen, cat #14190). About 4 h later, the rats are cardiac bled and their plasma is analyzed for levels of IL-2 (ELISA kit: R&D Systems cat #R2000) and IFN-γ (ELISA kit: R&D Systems cat #RIF00).
The rat concanavalin A (Con A) model was selected as the acute screening model because it provides an assessment of oral bioavailability, as well as a rapid measurement of effects on Jak1-dependent mechanisms. Intravenous injection of Con A into Lewis rats results in T cell receptor ligation and activation, leading to IL-2 release and IFN-γ induction by an autocrine mechanism. IL-2 release is Jak-independent, whereas IFN-γ induction is blocked by Jak1 inhibitors.
Plasma levels of IFN-γ and IL-2 are assessed 4 hours later in a terminal bleed.

[1] = system: adjuvant-induced arthritis (paw swelling, bone erosion); assay: Adjuvant-induced arthritis (AIA) in Lewis rats; type: in vivo
Procedure: The inflammation appears in the contra-lateral (left) hind paw seven days after the initial immunization. […] Rats are lightly anesthetized with an inhalant anesthetic (isoflurane) and the contra-lateral (left) hind paw is dipped into the plethysmograph and the paw volume is recorded. The rats are scored every other day up to day 17 after immunization. […] Bone volume and density is determined for a 360 μm (200 slice) vertical section encompassing the tarsal section of the paw. […] Drug exposure is determined in the plasma using LC/MS.

[2] = system: IL-7-dependent STAT5 phosphorylation; assay: Ex vivo IL-7-stimulated pSTAT5 in blood of orally dosed rats; conditions: Rattus norvegicus, po; rats dosed bid 14 days, blood 12 hours after final dose; read-out: IC50, inhibition of IL-7-induced pSTAT5 formation ex vivo
Text: Unlike other common gamma chain receptors, IL-7 receptors are expressed relatively abundantly on peripheral blood T cells, enabling the use of IL-7 as an agonist in ex vivo stimulation assays. Stimulation of whole blood with IL-7 leads to phosphorylation of STAT5, which can be measured by flow cytometry. Because STAT proteins are Jak kinase substrates, inhibition of their phosphorylation can be considered a mechanistic readout for Jak inhibition.

[3] = system: EPO dependent reticulocyte deployment; assay: Reticulocyte deployment assay (i.v. EPO) in rats; type: in vivo; conditions: over the exposure range efficacious in rat AIA
Text: Reticulocytes were deployed with an i.v. EPO injection, which produced a modest but very precise reticulocytosis.
In contrast, PBS control has negligible (if any) effect. This is consistent with the fact that EPO signals through Jak2 to stimulate reticulocyte development.

[4] = Pharmacokinetics across species; type: in vivo; conditions: rat, monkey, dog, plasma
CYP3A5 = CYP3A5 (Homo sapiens, UniProt P20815); assay: Metabolism by recombinant CYP3A5; type: in vitro ADME
Text: In vitro biotransformation of Compound 1 primarily occurred at imidazolpyrrolopyrazinyl ethyl pyrrolidine moiety.

CYP3A4 = assay: CYP induction (mRNA) in human hepatocytes, CYP3A4; type: in vitro ADME; conditions: 1, 3, and 10 μM
[5] = system: Balb/c 3T3 mouse fibroblasts; assay: Neutral red uptake phototoxicity assay; type: cell-based
[6] = Definitive embryofetal development toxicity study in rabbits; type: in vivo, New Zealand White rabbits; conditions: rabbit
Text: One additional group of 20 time-mated females served as the control and received the vehicle, 0.2% hydroxypropyl methylcellulose (HPMC, high viscosity) in deionized water.

[7] = Human PK in healthy Japanese and Chinese subjects, Study M13-543; type: in vivo; conditions: for AUC12/dose / Cmax/dose / Ctrough/Dose: Day 14, mean (% CV); for half-life / AUC / concentration at 14 day / AUC(0-t): human, plasma, oral; for AUC: read-out: AUC12; for concentration at 14 day: read-out: Ctrough; for AUC(0-t): mean (% CV)
Text: Two additional subjects were assigned to each dose level as placebo control.

[8] = rat, in vivo
Procedure: (§1) The 4-week rat study was conducted at dose levels of 0, 10, 50, 100, and 200 mg/kg/day by daily oral administration (gavage). […] The cause of death was not determined for animals that died.

[9] = Pivotal 4-week GLP oral toxicity study in rats; conditions: rat, 4 weeks; leading number = dose mg/kg/day
Procedure: as §1

CYP2B6 = CYP2B6 (Homo sapiens, UniProt P20813); assay: CYP inhibition in human liver microsomes, CYP2B6
CYP2C9 = CYP2C9 (Homo sapiens, UniProt P11712); assay: CYP inhibition in human liver microsomes, CYP2C9
[10] = Japanese, 6 & 24 mg single doses
[11] = 18 mg, Chinese, 18 mg BID, Day 14
[12] = 18 mg, Japanese, 18 mg BID, Day 14

Chain of CYP2B6 (P20813 whole entry): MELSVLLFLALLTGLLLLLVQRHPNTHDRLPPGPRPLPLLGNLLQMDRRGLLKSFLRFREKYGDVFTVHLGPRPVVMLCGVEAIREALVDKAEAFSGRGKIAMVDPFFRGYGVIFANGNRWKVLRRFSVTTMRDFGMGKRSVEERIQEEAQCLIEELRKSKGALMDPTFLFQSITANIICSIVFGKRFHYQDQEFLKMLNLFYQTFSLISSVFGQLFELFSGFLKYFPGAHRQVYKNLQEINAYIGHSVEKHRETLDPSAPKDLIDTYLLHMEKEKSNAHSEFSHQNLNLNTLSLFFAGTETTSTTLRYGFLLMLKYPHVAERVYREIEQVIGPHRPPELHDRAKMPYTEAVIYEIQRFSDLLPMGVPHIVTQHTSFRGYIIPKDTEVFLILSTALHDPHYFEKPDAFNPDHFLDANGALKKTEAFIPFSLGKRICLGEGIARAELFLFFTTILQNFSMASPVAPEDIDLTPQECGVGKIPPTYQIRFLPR
Chain of CYP2C9 (P11712 whole entry): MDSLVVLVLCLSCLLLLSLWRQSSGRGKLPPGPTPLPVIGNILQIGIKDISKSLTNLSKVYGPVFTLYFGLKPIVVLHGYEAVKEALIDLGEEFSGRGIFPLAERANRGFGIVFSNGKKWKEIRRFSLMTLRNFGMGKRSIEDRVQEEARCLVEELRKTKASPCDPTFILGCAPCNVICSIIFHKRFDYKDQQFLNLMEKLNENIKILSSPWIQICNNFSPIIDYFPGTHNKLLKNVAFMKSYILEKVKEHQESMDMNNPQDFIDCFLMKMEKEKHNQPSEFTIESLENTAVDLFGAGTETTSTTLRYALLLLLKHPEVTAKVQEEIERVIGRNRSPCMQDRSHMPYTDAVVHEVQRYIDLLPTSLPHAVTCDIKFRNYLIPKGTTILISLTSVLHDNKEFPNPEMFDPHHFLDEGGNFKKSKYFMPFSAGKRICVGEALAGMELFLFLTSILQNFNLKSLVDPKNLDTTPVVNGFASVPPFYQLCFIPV
Chain of CYP3A5 (P20815 whole entry): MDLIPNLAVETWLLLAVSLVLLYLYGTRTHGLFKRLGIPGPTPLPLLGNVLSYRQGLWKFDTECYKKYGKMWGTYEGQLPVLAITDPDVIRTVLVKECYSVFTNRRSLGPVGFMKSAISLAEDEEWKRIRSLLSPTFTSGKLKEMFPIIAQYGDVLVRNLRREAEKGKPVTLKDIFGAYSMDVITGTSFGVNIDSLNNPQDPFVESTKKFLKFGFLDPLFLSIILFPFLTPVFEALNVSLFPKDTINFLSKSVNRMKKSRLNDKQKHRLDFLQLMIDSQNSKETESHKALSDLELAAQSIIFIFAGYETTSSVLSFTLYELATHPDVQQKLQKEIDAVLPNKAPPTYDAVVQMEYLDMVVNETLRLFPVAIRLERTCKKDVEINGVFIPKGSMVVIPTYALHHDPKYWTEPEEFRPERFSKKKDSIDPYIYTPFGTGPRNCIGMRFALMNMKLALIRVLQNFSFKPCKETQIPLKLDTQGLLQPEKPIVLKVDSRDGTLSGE

CC[C@@H]1CN(C(=O)NCC(F)(F)F)C[C@@H]1c1cnc2cnc3[nH]ccc3n12 [Compound 1, (3S,4R)-3-ethyl-4-(3H-imidazo[1,2-a]pyrrolo[2,3-e]pyrazin-8-yl)-N-(2,2,2-trifluoroethyl)pyrrolidine-1-carboxamide]
ED50 (IFN-γ; Rattus norvegicus, read-out: ED50, inhibition of IFN-γ release): 0.4 mg/kg
ED80, inhibition of IFN-γ release (IFN-γ): 5.8 mg/kg
protection of bone erosion (tarsal bone volume, micro CT) ([1]; 3 mg/kg bid): complete protection
efficacious exposure (AUC60), PK/PD modeling ([1]; AIA rats, about 60% inhibition of paw swelling): 85 ng·h/mL
AUC60 (60% inhibition of paw swelling), total AUC0-12 ([1]; oral bid, last day of study): 85 ± 20 ng·h/mL and 85 ng·h/mL
AUC60, fraction unbound AUC0-12 ([1]; oral bid, last day of study): 34 ± 7 ng·h/mL
Paw Swelling (exposure) ([1]; rat AIA): 62 ng·h/mL
inhibition of Paw Swelling reached at about the same level of reticulocyte inhibition ([1]; rat AIA vs reticulocyte deployment): about 80%
IC50 [2]: ~20 nM
effects on reticulocyte deployment [3]: less than that of Tofacitinib
Vd ([4]; iv, all species, read-out: Vss): 1.6 to 2.7 L/kg
half-life ([4]; oral, read-out: plasma elimination half-life after oral dosing): 3 to 5 h
percentage of parent remaining (CYP3A5): 80.6%
mRNA expression of CYP3A4 (CYP3A4): did not increase
phototoxicity potential [5]: negative
maternal and fetal examinations ([6]; 2.5 and 10 mg/kg/day): no Compound 1-related effects
NOEL ([6]; oral, GD 7-19): NOEL = 10 mg/kg/day
CL/F ([7]; Chinese, 18 mg BID, Day 14): 39.0 L/h
AUC12/dose ([7]; Chinese, 18 mg BID): 25.9 ng·h/mL/mg
Cmax/dose ([7]; Chinese, 18 mg BID): 6.57 ng/mL/mg
Ctrough/Dose ([7]; Chinese, 18 mg BID): 0.43 ng/mL/mg
AUC lower than previously observed in Western subjects ([7]; Japanese, 3 mg single dose): 14%
Cmax lower than previously observed in Western subjects ([7]; Japanese, 3 mg single dose): 22%
CL/F ([7]; Japanese, 18 mg BID, Day 14): 35.2 L/h
AUC12/dose ([7]; Japanese, 18 mg BID): 29.0 ng·h/mL/mg
Cmax/dose ([7]; Japanese, 18 mg BID): 7.08 ng/mL/mg
Ctrough/Dose ([7]; Japanese, 18 mg BID): 0.48 ng/mL/mg
AUC higher than previously observed in Western subjects [7, 10]: 16-18%
Cmax higher than previously observed in Western subjects [7, 10]: 9%
half-life ([7]; 6 mg, Japanese, single dose 6 mg, harmonic mean (pseudo % CV), not a robust estimate, read-out: t1/2 (converted)): 5.5 h
AUC ([7]; 18 mg, Chinese, 18 mg BID, Day 1, mean (% CV)): 410 ng·h/mL
AUC [7, 11]: 466 ng·h/mL
concentration at 14 day [7, 11]: 7.7 ng/mL
AUC ([7]; 18 mg, Japanese, 18 mg BID, Day 1, mean (% CV)): 440 ng·h/mL
half-life ([7]; 18 mg, Japanese, 18 mg BID, Day 14, harmonic mean (pseudo % CV), read-out: t1/2 (converted)): 9.51 h
AUC [7, 12]: 522 ng·h/mL
concentration at 14 day [7, 12]: 8.61 ng/mL
half-life ([7]; Japanese, Chinese, and Western healthy subjects, read-out: terminal t1/2): 7 to 9.5 h
AUC(0-t) ([7]; Japanese, single dose 3 mg): 87.9 ng·h/mL
AUC(0-t) ([7]; Japanese, single dose 6 mg): 185 ng·h/mL
AUC(0-t) ([7]; Japanese, single dose 24 mg): 722 ng·h/mL
dose-normalized AUC and Ctrough higher in Asians than Westerns ([7]; multiple BID dosing): approximately 20%
dose-normalized Cmax higher in Asians than Westerns ([7]; multiple BID dosing): approximately 40%
Adverse Findings ([8]; both, 4 weeks): 100: Kidneys-cortical tubular
dose-limiting effects [8]: mortality
change in RBC counts compared to control means ([8]; 100 mg/kg/day): −13%
change in hematocrit compared to control means ([8]; 100 mg/kg/day): −14%
increase in mean phosphorus (up to, vs control mean) ([8]; 100 mg/kg/day): +10%
adverse events severe, serious, or fatal (Study M13-845): None
number of adverse events in combined treatment groups (Substudy 2, RA on MTX, 6, 12, 24 mg BID, all reported as not related): 7
subjects reporting treatment emergent AEs (6 out of 42) (healthy volunteers, as printed under Substudy 1): 14.3%
Adverse Findings [9]: ≧100: Mortality
time-dependent inhibition of CYP2B6 (CYP2B6; human liver microsomes): No obvious time-dependent inhibition
inhibition of CYP2B6 (CYP2B6; up to 30 μM): did not inhibit; also recorded: not an inhibitor
time-dependent inhibition of CYP2C9 (CYP2C9; human liver microsomes): No obvious time-dependent inhibition
inhibition of CYP2C9 (CYP2C9; up to 30 μM): did not inhibit; also recorded: not an inhibitor

— patent publication US20150118229A1, “JAK1 SELECTIVE INHIBITOR AND USES THEREOF” (ABBVIE INC., priority 2013, published 2015)
